From US20230183239A1, “ECTONUCLEOTIDE PYROPHOSPHATASE-PHOSPHODIESTERASE 1 (ENPP-1) INHIBITORS AND USES THEREOF” (AbbVie Inc., priority 2017, published 2023)
pKi: −log10 of the molar value.

Legend:
Type in all cases: biochemical
[1] = target: T1, ENPP1 (Homo sapiens, UniProt P22413); assay: ENPP1 enzyme assay with AMP-pNP substrate (hydrolysis of ATP analog); settings: AMP-pNP substrate (ATP analog); Ki from IC50 by Cheng-Prusoff; read-out: ENPP1 Inhibition _AMP-pNP: Ki
T1 sequence (P22413 1-925): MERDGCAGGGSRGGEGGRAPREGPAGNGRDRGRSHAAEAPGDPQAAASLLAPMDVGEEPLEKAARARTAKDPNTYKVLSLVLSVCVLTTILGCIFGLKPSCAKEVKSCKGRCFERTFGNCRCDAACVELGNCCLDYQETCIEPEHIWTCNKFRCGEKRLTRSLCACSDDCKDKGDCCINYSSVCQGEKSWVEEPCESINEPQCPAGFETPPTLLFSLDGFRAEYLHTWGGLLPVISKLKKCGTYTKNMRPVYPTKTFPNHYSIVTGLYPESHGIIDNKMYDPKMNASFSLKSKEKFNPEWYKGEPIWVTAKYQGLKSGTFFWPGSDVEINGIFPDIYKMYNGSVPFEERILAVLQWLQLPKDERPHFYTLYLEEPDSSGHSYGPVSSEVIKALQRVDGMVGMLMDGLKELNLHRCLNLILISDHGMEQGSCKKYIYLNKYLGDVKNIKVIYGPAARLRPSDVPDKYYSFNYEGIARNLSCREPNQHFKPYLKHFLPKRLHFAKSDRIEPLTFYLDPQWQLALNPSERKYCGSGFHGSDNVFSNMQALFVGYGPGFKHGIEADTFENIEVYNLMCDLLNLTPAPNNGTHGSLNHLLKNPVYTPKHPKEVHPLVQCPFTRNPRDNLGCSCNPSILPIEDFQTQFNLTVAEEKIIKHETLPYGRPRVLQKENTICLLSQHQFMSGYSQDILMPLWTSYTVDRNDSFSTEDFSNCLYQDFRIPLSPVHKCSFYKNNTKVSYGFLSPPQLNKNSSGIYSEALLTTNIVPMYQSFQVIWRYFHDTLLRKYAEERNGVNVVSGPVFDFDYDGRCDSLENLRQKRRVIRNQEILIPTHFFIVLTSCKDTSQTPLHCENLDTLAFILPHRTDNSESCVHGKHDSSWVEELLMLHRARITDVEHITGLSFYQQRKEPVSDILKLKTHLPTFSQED
Description: The ENPP1 assay with AMP-pNP substrate is conducted in a buffer containing 50 mM Tris-HCl (pH 8.5)/ 250 mM NaCl/0.5 mM CaCl2/1 µM ZnCl2/0.1% DMSO. Inhibitors are added at final concentrations ranging between 10 µM and 30 pM depending on the compound. Duplicate wells are run at each inhibitor concentration. The final assay volume is 40 µL and human recombinant ENPP1 is present at 60 ng/well. The assay is initiated by the addition of substrate (300 µM AMP-pNP final concentration), and incubated for 20 minutes at 37° C. […] Each assay plate also includes wells with no enzyme added (MIN OD) and wells with no inhibitor added (MAX OD). The percent inhibition of ENPP1 for each sample is then calculated as: […]
IC50 values of compounds were calculated by entering the percent inhibition values into a sigmoidal variable slope nonlinear regression model in GraphPad Prism® software.

[2] = target: T1, ENPP1; assay: Indirect quantitation of 2',3'-cGAMP hydrolysis (AMP-Glo Assay kit); settings: cGAMP substrate; Ki from IC50 by Cheng-Prusoff; read-out: ENPP1 Inhibition -cGAMP: Ki
[3] = target: T1, ENPP1; assay: Substrate selectivity ratio, inhibition of cGAMP hydrolysis versus ATP hydrolysis; settings: ratio Ki AMP-pNP / Ki cGAMP
Description: The selectivity ratios for inhibition of cGAMP hydrolysis versus ATP hydrolysis were then calculated as follows: […]

pKi [1] | pKi [2] | Substrate Selectivity: Ki_AMP-pNP/Ki_cGAMP [3] | Structure (SMILES)
> 7.00 | > 7.00 | 71.2 | COc1ccc2c(NCc3ccc(S(N)(=O)=O)cc3)ncnc2c1 [Example 230, 4-(((7-methoxyquinazolin-4-yl)amino)methyl)benzene sulfonamide]
6.00 to 7.00 | > 7.00 | 43 | NS(=O)(=O)c1ccc(Oc2ccnc3[nH]c(=O)ccc23)cc1 [Example 352, 4-((7-oxo-7,8-dihydro-1,8-naphthyridin-4-yl)oxy)benzenesulfonamide]
> 7.00 | > 7.00 | 36.8 | COc1cc2nccc(Nc3ccc(CC(=O)NO)cc3)c2cc1OC [Example 207, 2-(4-((6,7-dimethoxyquinolin-4-yl)amino)phenyl)-N-hydroxyacetamide]
> 7.00 | > 7.00 | 41.6 | COc1cc2ncnc(NCc3ccc(S(N)(=O)=O)cc3)c2cc1F [Example 259, 4-(((6-fluoro-7-methoxyquinazolin-4-yl)amino)methyl)benzenesulfonamide]
> 7.00 | > 7.00 | 38.7 | COc1ccc2c(N3CCC4(CC3)CCN(S(N)(=O)=O)C4)ncnc2c1 [Example 65, 8-(7-methoxyquinazolin-4-yl)-2,8-diazaspiro [4.5] decane-2-sulfonamide]
< 6.00 | > 7.00 | >118 | COc1cc2c(N3CCC4(CC3)CCN(S(N)(=O)=O)C4)c(C#N)cnc2cn1 [Example 256, 8-(3-cyano-6-methoxy-1,7-naphthyridin-4-yl)-2,8-diazaspiro [4.5] decane-2-sulfonamide]
< 6.00 | 6.00 to 7.00 | – | COc1cc2nccc(Nc3ccc(NS(=O)(=O)C(F)(F)F)cc3)c2cc1OC [Example 174, N-(4-((6,7-dimethoxyquinolin-4-yl)amino)phenyl)-1,1,1-trifluoromethanesulfonamide]
< 6.00 | < 6.00 | – | NS(=O)(=O)NCCC1CCN(c2cc(-c3ccc4c(c3)OCO4)ncn2)CC1 [Example 10, N-(2-(1-(6-(benzo[d][1,3]dioxol-5-yl)pyrimidin-4-yl)piperidin-4-yl)ethyl)sulfamide]
– | < 6.00 | – | NS(=O)(=O)Nc1ccc(Oc2ccnc3cc(F)ccc23)cc1 [Example 298, N-(4-((7-fluoroquinolin-4-yl)oxy)phenyl)sulfamide]
– | < 6.00 | – | COc1ccc(S(=O)(=O)N2CCN(CCO)CC2)cc1OC [Example 340, 2-(4-((3,4-dimethoxyphenyl)sulfonyl)piperazin-1-yl)ethan-1-ol]

Further lines, the compound ahead of its results:

Structure (SMILES) | pKi [1] | pKi [2] | Substrate Selectivity: Ki_AMP-pNP/Ki_cGAMP [3]
COc1cc2ncnc(NC(c3ccc(NS(N)(=O)=O)cc3)C3CC3)c2cc1OC (stereo not shown) [Example 246, N-(4-(cyclopropyl((6,7-dimethoxyquinazolin-4-yl)amino)methyl)phenyl)sulfamide] | < 6.00 | > 7.00 | >87.7
COc1ccc2c(Oc3cnc(NS(N)(=O)=O)nc3)ccnc2c1 [Example 224, N-(5-((7-methoxyquinolin-4-yl)oxy)pyrimidin-2-yl)sulfamide] | 6.00 to 7.00 | 6.00 to 7.00 | > 2.40
COc1ccc2c(-c3ccc(C(C)NS(N)(=O)=O)cc3)ccnc2c1 (stereo not shown) [Example 416, N-(1-(4-(7-methoxyquinolin-4-yl)phenyl)ethyl)sulfamide] | 6.00 to 7.00 | > 7.00 | 50
COc1cc2nccc(N3CCC(CCNS(N)(=O)=O)CC3)c2cn1 [Example 204, N-(2-(1-(7-methoxy-1,6-naphthyridin-4-yl)piperidin-4-yl)ethyl)sulfamide] | < 6.00 | 6.00 to 7.00 | > 39.4
COc1ccc2c(Oc3ccc(NS(N)(=O)=O)cc3)ccnc2n1 [Example 73, N-(4-((7-methoxy-1,8-naphthyridin-4-yl)oxy)phenyl)sulfamide] | > 7.00 | > 7.00 | 24.2
COc1ccc2c(-c3ccc4c(c3)CN(S(N)(=O)=O)CC4)c(C#N)cnc2c1 [Example 249, 7-(3-cyano-7-methoxyquinolin-4-yl)-3,4-dihydroisoquinoline-2(1H)-sulfonamide] | < 6.00 | 6.00 to 7.00 | –
COc1cc2ncnc(N3CCC(CCC(=O)NO)CC3)c2cc1OC [Example 159, 3-(1-(6,7-dimethoxyquinazolin-4-yl)piperidin-4-yl)-N-hydroxypropanamide] | > 7.00 | > 7.00 | 54.8
COc1ccc2nccc(Oc3ccc(S(N)(=O)=O)cc3)c2c1 [Example 355, 4-((6-methoxyquinolin-4-yl)oxy)benzenesulfonamide] | < 6.00 | > 7.00 | >53
COc1ccc2c(-c3ccc(CNS(N)(=O)=O)cc3Cl)ccnc2c1 [Example 419, N-(3-chloro-4-(7-methoxyquinolin-4-yl)benzyl)sulfamide] | < 6.00 | > 7.00 | >70
COc1cc2nccc(Oc3ccc(NS(N)(=O)=O)cc3)c2cc1F [Example 282, N-(4-((6-fluoro-7-methoxyquinolin-4-yl)oxy)phenyl)sulfamide] | > 7.00 | > 7.00 | –
COc1cc2ncnc(N3CCC4(CC3)CN(S(N)(=O)=O)C4)c2cc1OC [Example 30, 7-(6,7-dimethoxyquinazolin-4-yl)-2,7-diazaspiro[3.5]nonane-2-sulfonamide] | < 6.00 | – | 39.4
COc1cc2ncnc(N(C)c3ccc(NS(N)(=O)=O)cc3)c2cc1OC [Example 190, N-(4-((6,7-dimethoxyquinazolin-4-yl)(methyl)amino)phenyl)sulfamide] | < 6.00 | < 6.00 | –
COc1ccc(-c2cc(N3CCC(NS(N)(=O)=O)CC3)ncn2)cc1OC [Example 36, N-(1-(6-(3,4-dimethoxyphenyl)pyrimidin-4-yl)piperidin-4-yl)sulfamide] | – | < 6.00 | –
COc1ccc2c(=O)n(Cc3ccc(S(N)(=O)=O)cc3)cnc2c1 [Example 400, 4-((7-methoxy-4-oxoquinazolin-3(4H)-yl)methyl)benzenesulfonamide] | – | < 6.00 | –
COc1cc2ncnc(Nc3ccc(CC(=O)O)cc3)c2cc1OC [Example 332, 2-(4-((6,7-dimethoxyquinazolin-4-yl)amino)phenyl)acetic acid] | – | < 6.00 | –
NS(=O)(=O)NCCC1CCN(c2ccnc3ncn(-c4ccccc4)c23)CC1 [Example 211, N-(2-(1-(1-phenyl-1H-imidazo[4,5-b]pyridin-7-yl)piperidin-4-yl)ethyl)sulfamide] | – | < 6.00 | –
COc1cc2ncnc(-c3ccc4c(c3)CCC(NS(N)(=O)=O)C4)c2cc1OC (stereo not shown) [Example 131, N-(6-(6,7-dimethoxyquinazolin-4-yl)-1,2,3,4-tetrahydronaphthalen-2-yl)sulfamide] | – | < 6.00 | –
COc1cc2cnn(-c3ccc(CNS(N)(=O)=O)cc3)c2cc1OC [Example 166, N-(4-(5,6-dimethoxy-1H-indazol-1-yl)benzyl)sulfamide] | – | 6.00 to 7.00 | –
COc1ccc2c(-c3ccc4c(c3)CN(S(N)(=O)=O)CC4)c(C(F)(F)F)cnc2c1 [Example 408, 7-(7-methoxy-3-(trifluoromethyl)quinolin-4-yl)-3,4-dihydroisoquinoline-2(1H)-sulfonamide] | – | 6.00 to 7.00 | –
COc1ccc2c(Oc3ccc(N(C)S(N)(=O)=O)cc3)ccnc2c1 [Example 77, N-(4-((7-methoxyquinolin-4-yl)oxy)phenyl)-N-methylsulfamide] | – | > 7.00 | –
